Reference: article PMC9627161 (Frontiers in Pharmacology, 2022)
Peptide text beside a SMILES is read from it.

Assays:
[1] = system: SARS-CoV-2 pseudovirus; conditions: 1 h, 5 μM
[2] = target: RBD (Severe acute respiratory syndrome coronavirus 2, UniProt P0DTC2); assay: MST binding to RBD protein; design: species or system SARS-CoV-2; conditions: mean ± SD (n = 3)
Procedure: To detect the interaction between the peptides and RBD/Mpro, the MST experiments were performed using the Monolith NT.115 instrument. RBD and Mpro proteins were labeled with the Lys labeling kit, respectively. In the assay, the final concentration of the labeled protein was 50 nM, and the peptides were gradient-diluted in 1:1 dilution and starting from 12.5 μM. After brief incubation in MST buffer, the samples were loaded into MST-standard glass capillaries. All the measurements were performed in triplicate using automatically assigned 50% MST power and 20% LED power.

[3] = target: Mpro (Severe acute respiratory syndrome coronavirus 2, UniProt P0DTD1); assay: MST binding to Mpro protein; design: species or system SARS-CoV-2; conditions: mean ± SD (n = 3)

## CC(=O)N[C@@H](CO)C(=O)N[C@H](C(=O)N[C@@H](CO)C(=O)N[C@@H](C)C(=O)N[C@H](C(=O)N[C@@H](CC(C)C)C(=O)N[C@@H](CCC(N)=O)C(=O)N[C@@H](CO)C(=O)NCC(=O)N[C@@H](Cc1ccccc1)C(=O)N[C@@H](CCCNC(=N)N)C(=O)N[C@@H](CCCCN)C(=O)N[C@@H](Cc1ccccc1)C(N)=O)C(C)C)[C@@H](C)O [Peptide-21]
[1]
  inhibition against pseudotyped SARS-CoV-2 virus: < 20%
[2]
  RBD, Kd: no binding
[2]; listed as peptide-21
  RBD, Kd: no binding affinity

## CC[C@H](C)[C@H](N)C(=O)N[C@@H](CCC(=O)O)C(=O)N[C@@H](CCC(=O)O)C(=O)N[C@@H](CCC(N)=O)C(=O)N[C@@H](C)C(=O)N[C@@H](CCCCN)C(=O)N[C@H](C(=O)N[C@@H](Cc1ccccc1)C(=O)N[C@@H](CC(C)C)C(=O)N[C@@H](CC(=O)O)C(=O)N[C@@H](CCCCN)C(=O)N[C@@H](Cc1ccccc1)C(=O)N[C@@H](CC(N)=O)C(=O)N[C@@H](Cc1c[nH]cn1)C(=O)N[C@@H](CCC(=O)O)C(=O)N[C@@H](CCCCN)C(=O)N[C@@H](CCC(=O)O)C(=O)N[C@@H](CC(=O)O)C(=O)N[C@@H](CC(C)C)C(=O)N[C@@H](CCC(=O)O)C(=O)N[C@@H](Cc1ccc(O)cc1)C(=O)N[C@@H](CCC(N)=O)C(=O)N[C@@H](CO)C(=O)N[C@@H](CO)C(=O)N[C@@H](CC(C)C)C(=O)N[C@@H](C)C(=O)N[C@@H](CO)C(=O)N[C@@H](Cc1c[nH]c2ccccc12)C(=O)N[C@@H](CC(N)=O)C(=O)N[C@@H](Cc1ccc(O)cc1)C(=O)N[C@@H](CC(N)=O)C(=O)N[C@H](C(=O)N[C@@H](CC(N)=O)C(=O)N[C@H](C(=O)N[C@H](C(=O)O)[C@@H](C)O)[C@@H](C)CC)[C@@H](C)O)[C@@H](C)O [Peptide-5] (H-IEEQAKTFLDKFNHEKEDLEYQSSLASWNYNTNIT-OH; N-terminus and C-terminus assumed)
[1]
  inhibition against pseudotyped SARS-CoV-2 virus: about 40%
[3]
  Mpro, Kd: no binding
[3]; listed as peptide-5
  Mpro, Kd: no binding affinity
